Several values for one entry are separate records, joined by “and”; a condition that tells them apart may be missing. Equal values may be shown once.
Test system: NCI-H719 tumor spheroids, viability
Assay: Anticancer human tumor NCI-H719 cell line growth inhibition;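 further: spheroids exposed to compounds for seven days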;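 on viability, T/C: percent viability relative to DMSO vehicle control as 100%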
Conditions: spheroids with HUVEC and MSC; for viability, T/C: stronger effect = lower value
Procedure, shortened: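 Complex spheroids of malignant cells with endothelial cells and mesenchymal stem cells; agents alone or combined, from near clinical Cmax (or 10 microM if unknown) down in half-log steps, 0.25% DMSO final.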

[1] = curve of first compound, second compound 0.003 µM
[2] = second compound 0.003 µM, first compound 0.0949 µM
[3] = second compound 0.003 µM, first compound 0.3 µM
[4] = second compound 0.003 µM, first compound 0.949 µM
[5] = second compound 0.003 µM, first compound 3 µM

## Cn1ncnc1[C@H]1c2n[nH]c(=O)c3cc(F)cc(c23)N[C@@H]1c1ccc(F)cc1 + CC[C@@]1(O)C(=O)OCc2c1cc1n(c2=O)Cc2cc3c(CN(C)C)c(O)ccc3nc2-1
[1]
  IC50: < 9.49 nM
Curve of first compound, second compound 0.00949 µM
  IC50: < 9.49 nM
Curve of first compound, second compound 0.03 µM
  IC50: < 9.49 nM
Curve of first compound, second compound 0.0949 µM
  IC50: < 9.49 nM
Curve of first compound, second compound 0.3 µM
  IC50: < 9.49 nM
Second compound 0.003 µM, first compound 0.00949 µM
  viability, T/C: 5.32%
Second compound 0.003 µM, first compound 0.03 µM
  viability, T/C: 5.79%
[2]
  viability, T/C: 5.99%
[3]
  viability, T/C: 5.19%
[4]
  viability, T/C: 4.99%
[5]
  viability, T/C: 5.85%
Second compound 0.00949 µM, first compound 0.00949 µM
  viability, T/C: 5.81%
Second compound 0.00949 µM, first compound 0.03 µM
  viability, T/C: 5.54%
Second compound 0.00949 µM, first compound 0.0949 µM
  viability, T/C: 5.47%
Second compound 0.00949 µM, first compound 0.3 µM
  viability, T/C: 5.57%
Second compound 0.00949 µM, first compound 0.949 µM
  viability, T/C: 5.5%
Second compound 0.00949 µM, first compound 3 µM
  viability, T/C: 6.37%
Second compound 0.03 µM, first compound 0.00949 µM
  viability, T/C: 5.15%
Second compound 0.03 µM, first compound 0.03 µM
  viability, T/C: 5.23%
Second compound 0.03 µM, first compound 0.0949 µM
  viability, T/C: 4.9%
Second compound 0.03 µM, first compound 0.3 µM
  viability, T/C: 5.13%
Second compound 0.03 µM, first compound 0.949 µM
  viability, T/C: 5.61%
Second compound 0.03 µM, first compound 3 µM
  viability, T/C: 6.6%
Second compound 0.0949 µM, first compound 0.00949 µM
  viability, T/C: 5.2%
Second compound 0.0949 µM, first compound 0.03 µM
  viability, T/C: 5.29%
Second compound 0.0949 µM, first compound 0.0949 µM
  viability, T/C: 6.09%
Second compound 0.0949 µM, first compound 0.3 µM
  viability, T/C: 5.95%
Second compound 0.0949 µM, first compound 0.949 µM
  viability, T/C: 5.66%
Second compound 0.0949 µM, first compound 3 µM
  viability, T/C: 7.03%
Second compound 0.3 µM, first compound 0.00949 µM
  viability, T/C: 5.56%
Second compound 0.3 µM, first compound 0.03 µM
  viability, T/C: 5.67%
Second compound 0.3 µM, first compound 0.0949 µM
  viability, T/C: 5.84%
Second compound 0.3 µM, first compound 0.3 µM
  viability, T/C: 5.89%
Second compound 0.3 µM, first compound 0.949 µM
  viability, T/C: 6.04%
Second compound 0.3 µM, first compound 3 µM
  viability, T/C: 5.47%

## O=C(c1cc(Cc2n[nH]c(=O)c3ccccc23)ccc1F)N1CCN(C(=O)C2CC2)CC1 + COc1cc2c(cc1O)CCNC21CSC2c3c(OC(C)=O)c(C)c4c(c3C(COC1=O)N1C(O)C3Cc5cc(C)c(OC)c(O)c5C(C21)N3C)OCO4
Curve of first compound, second compound 30 pM
  IC50: 356 nM
Curve of first compound, second compound 94.9 pM
  IC50: < 94.9 nM
Curve of first compound, second compound 0.0003 µM
  IC50: < 94.9 nM
Curve of first compound, second compound 0.000949 µM
  IC50: < 94.9 nM
[1]
  IC50: < 94.9 nM
Second compound 30 pM, first compound 0.0949 µM
  viability, T/C: 67%
Second compound 30 pM, first compound 0.3 µM
  viability, T/C: 48.7%
Second compound 30 pM, first compound 0.949 µM
  viability, T/C: 41.7%
Second compound 30 pM, first compound 3 µM
  viability, T/C: 22.3%
Second compound 30 pM, first compound 9.49 µM
  viability, T/C: 12.5%
Second compound 30 pM, first compound 30 µM
  viability, T/C: 8.97%
Second compound 94.9 pM, first compound 0.0949 µM
  viability, T/C: 23.4%
Second compound 94.9 pM, first compound 0.3 µM
  viability, T/C: 13.7%
Second compound 94.9 pM, first compound 0.949 µM
  viability, T/C: 14%
Second compound 94.9 pM, first compound 3 µM
  viability, T/C: 13.3%
Second compound 94.9 pM, first compound 9.49 µM
  viability, T/C: 13.3%
Second compound 94.9 pM, first compound 30 µM
  viability, T/C: 6.02%
Second compound 0.0003 µM, first compound 0.0949 µM
  viability, T/C: 10.9%
Second compound 0.0003 µM, first compound 0.3 µM
  viability, T/C: 8.6%
Second compound 0.0003 µM, first compound 0.949 µM
  viability, T/C: 11.6%
Second compound 0.0003 µM, first compound 3 µM
  viability, T/C: 11.6%
Second compound 0.0003 µM, first compound 9.49 µM
  viability, T/C: 8.94%
Second compound 0.0003 µM, first compound 30 µM
  viability, T/C: 6.85%
Second compound 0.000949 µM, first compound 0.0949 µM
  viability, T/C: 6.97%
Second compound 0.000949 µM, first compound 0.3 µM
  viability, T/C: 8.6%
Second compound 0.000949 µM, first compound 0.949 µM
  viability, T/C: 8.56%
Second compound 0.000949 µM, first compound 3 µM
  viability, T/C: 7.26%
Second compound 0.000949 µM, first compound 9.49 µM
  viability, T/C: 5.7%
Second compound 0.000949 µM, first compound 30 µM
  viability, T/C: 4.86%
[2]
  viability, T/C: 0.61%
[3]
  viability, T/C: 0.45%
[4]
  viability, T/C: 0.63%
[5]
  viability, T/C: 0.7%
Second compound 0.003 µM, first compound 9.49 µM
  viability, T/C: 0.69%
Second compound 0.003 µM, first compound 30 µM
  viability, T/C: 1.37%

## COc1cc(C)[nH]c(=O)c1CN1CCc2c(Cl)cc(C(OC)C3COC3)c(Cl)c2C1=O (configuration not stated)
Compound 0.0316 µM
  viability, T/C: 100% and 103% and 101%
Compound 0.1 µM
  viability, T/C: 102% and 75.5% and 111%
Compound 0.316 µM
  viability, T/C: 108%
Compound 1 µM
  viability, T/C: 109% and 114% (2×)
Compound 3.16 µM
  viability, T/C: 102% and 113% and 106%
Compound 10 µM
  viability, T/C: 114% and 125% and 109%
Curve of compound
  IC50: > 10000 nM

— PubChem BioAssay AID1845212 (Molecular Pharmacology Branch, DTP, NCI, 2023)
